In patent US10584303B2, “Stabilization of isothiazolones in aqueous compositions” (DDP Specialty Electronic Materials US, Inc., priority 2014, dated 2020):
Where two headings read alike, the source gives them in different places.

What was measured:
[1] = Stability of MIT: 25% amine and 10 ppm MIT (HPLC); details: extremely high ratios of amine:isothiazolone (25% amine, 10 ppm MIT); room temperature and 40° C.
Experimental: (§1) The MWF samples dosed with biocide were analyzed for active level by high pressure liquid chromatography (HPLC) at time 0. The samples were then vortexed and split into a sample that was aged at room temperature and a sample that was aged at 40° C. Each week an aliquot of the aged samples was evaluated by HPLC for the level of active remaining. Samples where no active was found for two consecutive weeks were no longer analyzed.

[2] = 168 h
Experimental: as §1

| Structure (SMILES) | stability of MIT compared with other amines [1] | remaining active ingredient MIT [2] [wt %] | remaining active ingredient MIT (336 h) [wt %] | remaining active ingredient MIT (504 h) [wt %] |
| --- | --- | --- | --- | --- |
| CCC(O)CN(CCO)CCO (stereo not drawn) [Amine A, 1-[bis(hydroxylethyl)amino]-2-butanol] | much better stability | – | – | – |
| NCCO [Amine F, 2-aminoethanol, reference compound] | – | 0 | 108 | – |
| CCC(O)CN(CCO)CC(O)CC (stereo not drawn) [Amine D, N,N-bis(2-hydroxybutyl)-2-amino ethanol] | much better stability | – | – | – |
| CC(O)CN(CC(C)O)CC(C)O (stereo not drawn) [Amine G, triisopropanol amine] | – | – | 110 | 108 |
